# Experimental data as given in patent US12195427B2, “MASP-2 inhibitors and methods of use” (priority 2018, dated 2025).
# Counter-ions that a name gives are not always drawn.
# Legend:
# human α-thrombin = human α-thrombin (Homo sapiens (Human), UniProt P00734); assay: Enzymatic Assay for Thrombin (Boc-VPR-AMC); format: biochemical
# MASP-2 CCP2-SP = MASP-2 CCP2-SP (Homo sapiens (Human), UniProt O00187); assay: MASP-2 co-crystallization, X-ray crystallography and structure analysis (H-bonds, van der Waals contacts); set-up: van der Waals contact distance, MASP-2 HIS 483 atom CD2 / van der Waals contact distance, MASP-2 HIS 483 atom NE2 / van der Waals contact distance, SER 654 C to compound atom / van der Waals contact distance, SER 654 O to compound atom / van der Waals contact distance, TRP 655 C to compound atom / van der Waals contact distance, MASP-2 GLY 528 atom CA / van der Waals contact distance TRP 655 atom CZ3 / van der Waals contact distance TRP 655 atom N / van der Waals contact distance TRP 655 atom CE3 / van der Waals contact distance GLY 656 atom C / van der Waals contact distance GLY 656 atom CA / van der Waals contact distance GLY 656 atom O / van der Waals contact distance, MASP-2 TYR 607 atom CD1 / van der Waals contact distance, MASP-2 PRO 606 atom O / d(C3,CA1) / d(CA1,N1)2 / d(H4,O1) / d(H4,O2) / d(O1,O2) / d(CA1,O2) / d(CA6,O1) / d(CA6,O2) / d(CA1,C5) / d(O2,H3) / d(N2,C2) / d(CA5,N2) / d(N2,C4) / d(N2,C6) / d(N2,CA3) / d(N2,O3) / d(O4,H2): unit not given beside the values; conditions: for H-bond distance to MASP-2 GLY 656 atom N: GLY 656 N; for H-bond distance to MASP-2 GLY 656 atom O: GLY 656 O; for H-bond distance to MASP-2 SER 654 atom O: SER 654 O;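 for Ligand-pharmacophore element distance, pharmacophore element C2: distance from averaged pharmacophore element to bound ligand; missing value means element absent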;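 for Ligand-pharmacophore element distance, pharmacophore element C3: distance from averaged pharmacophore element to bound ligand; missing value means element absent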;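 for Ligand-pharmacophore element distance, pharmacophore element C4: distance from averaged pharmacophore element to bound ligand; missing value means element absent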;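 for Ligand-pharmacophore element distance, pharmacophore element C5: distance from averaged pharmacophore element to bound ligand; missing value means element absent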
# How it was run: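 Soaked crystals of recombinant CCP2-SP (E. coli) yield the structures, phased by molecular replacement on 1Q3X pieces. Hydrophobic or nonbonded contacts can also cover atom pairs that are potential hydrogen bonds.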
# [1] = Table A5-1 pharmacophore: distance between elements, S2/S1 region
# [2] = Table A5-2 pharmacophore distance, S3/S4 region
# [3] = Table A7-1, between pharmacophore elements of the bound compound
# [4] = Table A8-6, nearest protein atom in cell to the left
# Chain of MASP-2 CCP2-SP (O00187 445-686): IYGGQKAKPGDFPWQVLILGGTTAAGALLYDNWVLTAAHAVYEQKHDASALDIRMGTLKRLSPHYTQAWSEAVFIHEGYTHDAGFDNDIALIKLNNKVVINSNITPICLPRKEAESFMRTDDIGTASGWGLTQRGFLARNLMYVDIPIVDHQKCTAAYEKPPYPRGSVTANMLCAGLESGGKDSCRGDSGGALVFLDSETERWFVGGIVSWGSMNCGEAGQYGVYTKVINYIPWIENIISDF
# Chain of MASP-2 CCP2-SP (O00187 364-432 partner): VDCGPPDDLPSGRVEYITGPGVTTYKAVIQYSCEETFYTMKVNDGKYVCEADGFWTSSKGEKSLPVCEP
smiles,measurement,setting,value
C[C@H](NC(=O)[C@H](N)C1Cc2ccccc2C1)C(=O)NCc1ccc2nc(N)[nH]c2c1 [compound 1059],Ki,human α-thrombin,> 25 µM
same,H-bond distance to MASP-2 ASP 627 atom OD1,"MASP-2 CCP2-SP; Table A1 (H-Bonds), ASP 627 OD1",2.99
same,H-bond distance to MASP-2 ASP 627 atom OD2,"MASP-2 CCP2-SP; Table A1 (H-Bonds), ASP 627 OD2",2.95
same,H-bond distance to MASP-2 GLN 665 atom O,"MASP-2 CCP2-SP; Table A1 (H-Bonds), GLN 665 O",3.31
same,H-bond distance to MASP-2 GLY 656 atom N,MASP-2 CCP2-SP; Table A1 (H-Bonds),3.13
same,H-bond distance to MASP-2 GLY 656 atom O,MASP-2 CCP2-SP; Table A1 (H-Bonds),2.94
same,H-bond distance to MASP-2 SER 654 atom O,MASP-2 CCP2-SP; Table A1 (H-Bonds),2.95
same,H-bond distance to MASP-2 SER 657 atom O,"MASP-2 CCP2-SP; Table A1 (H-Bonds), SER 657 O",2.77
same,H-bond distance to MASP-2 SER 657 atom OG,"MASP-2 CCP2-SP; Table A1 (H-Bonds), SER 657 OG",2.94
same,"van der Waals contact distance, MASP-2 HIS 483 atom CD2",MASP-2 CCP2-SP; Table A2-1,3.69
same,"van der Waals contact distance, MASP-2 TYR 607 atom CD1",MASP-2 CCP2-SP; Table A2-4,3.89
same,"van der Waals contact distance, MASP-2 amino acid atom to compound atom","MASP-2 CCP2-SP; Table A2-5: TYR 607 (CE1, CE2, OH), PRO 608 (CD, CG), SER 611 (CA)",3.89
same,"van der Waals contact distance, MASP-2 amino acid atom to compound atom","MASP-2 CCP2-SP; Table A2-9, ARG 630, AA atoms CG, CZ",3.14
same,"van der Waals contact distance, VAL 653 CG1 to compound atom",MASP-2 CCP2-SP; Table A2-11,3.81
same,van der Waals contact distance TRP 655 atom CZ3,"MASP-2 CCP2-SP; Table A2-13, MASP-2 TRP 655 CZ3",3.84
same,van der Waals contact distance TRP 655 atom O,"MASP-2 CCP2-SP; Table A2-13, MASP-2 TRP 655 O",3.88
same,"Ligand-pharmacophore element distance, pharmacophore element C2","MASP-2 CCP2-SP; Table A4-1, element C2",1.86
same,"Ligand-pharmacophore element distance, pharmacophore element C3","MASP-2 CCP2-SP; Table A4-1, element C3",0
same,"Ligand-pharmacophore element distance, pharmacophore element C4","MASP-2 CCP2-SP; Table A4-1, element C4",0
same,"Ligand-pharmacophore element distance, pharmacophore element C5","MASP-2 CCP2-SP; Table A4-1, element C5",0
same,"Ligand-pharmacophore element distance, pharmacophore element C6","MASP-2 CCP2-SP; Table A4-1, element C6",0
same,"Ligand-pharmacophore element distance, pharmacophore element C7","MASP-2 CCP2-SP; Table A4-1, element C7",0
same,"Ligand-pharmacophore element distance, pharmacophore element CA1","MASP-2 CCP2-SP; Table A4-1, element CA1",1.27
same,"Ligand-pharmacophore element distance, pharmacophore element CA2","MASP-2 CCP2-SP; Table A4-1, element CA2",0.8
same,"Ligand-pharmacophore element distance, pharmacophore element CA3","MASP-2 CCP2-SP; Table A4-1, element CA3",0
same,"Ligand-pharmacophore element distance, pharmacophore element CA4","MASP-2 CCP2-SP; Table A4-1, element CA4",0
same,"Ligand-pharmacophore element distance, pharmacophore element CA5","MASP-2 CCP2-SP; Table A4-1, element CA5",0
same,"Ligand-pharmacophore element distance, pharmacophore element CA6","MASP-2 CCP2-SP; Table A4-1, element CA6",0
same,"d(CA1,N1)",MASP-2 CCP2-SP; [1],1.85
same,"d(CA1,O1)",MASP-2 CCP2-SP; [1],5.32
same,"d(CA1,O2)",MASP-2 CCP2-SP; [1],5.00
same,"d(H4,O1)",MASP-2 CCP2-SP; [1],4.89
same,"d(H4,O2)",MASP-2 CCP2-SP; [1],4.48
same,"d(O1,O2)",MASP-2 CCP2-SP; [1],3.20
same,"d(N2,C2)",MASP-2 CCP2-SP; [2],3.70
same,"d(N2,CA2)",MASP-2 CCP2-SP; [2],5.88
same,"d(O2,H3)",MASP-2 CCP2-SP; [2],4.97
same,"d(O2,N2)",MASP-2 CCP2-SP; [2],2.67
same,"a(CA1, O1, O2)",MASP-2 CCP2-SP; Table A6-1 pharmacophore angle,102.43
same,"a(O1, O2, H4)",MASP-2 CCP2-SP; Table A6-1 pharmacophore angle,140.37
same,"A(N1, CA1, O1) a)","MASP-2 CCP2-SP; Table A6-1 pharmacophore angle, all compounds with protonatable center N1 except Methyl-amino-pyridine",176.16
same,"a(O1, O2, H3)",MASP-2 CCP2-SP; Table A6-2 pharmacophore angle,148.70
same,"a(O1, O2, N2)",MASP-2 CCP2-SP; Table A6-2 pharmacophore angle,132.46
same,"a(O2, N2, C2)",MASP-2 CCP2-SP; Table A6-2 pharmacophore angle,139.14
same,"a(O2, N2, CA2)",MASP-2 CCP2-SP; Table A6-2 pharmacophore angle,153.47
same,"Pharmacophore torsion angle a(H4, O1, O2, H3)",MASP-2 CCP2-SP; [3],47.74
same,"Pharmacophore torsion angle a(H4, O1, O2, N2)",MASP-2 CCP2-SP; [3],121.97
same,"Pharmacophore torsion angle a(N1, CA1, O2, H4)",MASP-2 CCP2-SP; [3],−131.19
same,"Pharmacophore torsion angle a(O1, H4, O2, CA1)",MASP-2 CCP2-SP; [3],−89.48
same,"Pharmacophore torsion angle a(O1, O2, N2, C2)",MASP-2 CCP2-SP; [3],129.30
same,"Pharmacophore torsion angle a(O1, O2, N2, CA2)","MASP-2 CCP2-SP; Table A7-2, between pharmacophore elements of the bound compound",134.69
same,Pharmacophore protein distance to MET_658 (first MET_658 column),"MASP-2 CCP2-SP; Table A8-6, 6th residue column, nearest protein atom in cell to the left",1.94
same,Pharmacophore protein distance to GLY_528,MASP-2 CCP2-SP; [4],3.81
same,Pharmacophore protein distance to PHE_529,MASP-2 CCP2-SP; [4],2.97
same,Pharmacophore protein distance to PRO_608,MASP-2 CCP2-SP; [4],3.70
same,Pharmacophore protein distance to SER_611,MASP-2 CCP2-SP; [4],2.61
same,Pharmacophore protein distance to TRP_655,"MASP-2 CCP2-SP; Table A8-6, pharmacophore elements C6, CA3, O3, H1, nearest protein atom in cell to the left",3.64
"C[C@H](NC(=O)[C@H]1C[C@H](Cc2ccccc2)CN1)C(=O)NCc1cnc2c(c1)c(Cl)cn2C [compound 1450, (2R,4S)-4-Benzyl-N—((S)-1-(((3-chloro-1-methyl-1H-pyrrolo[2,3-b]pyridin-5-yl)methyl)amino)-1-oxopropan-2-yl)pyrrolidine-2-carboxamide Dihydrochloride]",Ki,human α-thrombin,2.5 to 10 µM
same,H-bond distance to MASP-2 GLY 656 atom N,MASP-2 CCP2-SP; Table A1 (H-Bonds),3.04
same,H-bond distance to MASP-2 GLY 656 atom O,MASP-2 CCP2-SP; Table A1 (H-Bonds),2.78
same,H-bond distance to MASP-2 SER 654 atom O,MASP-2 CCP2-SP; Table A1 (H-Bonds),2.97
same,"van der Waals contact distance, MASP-2 amino acid atom to compound atom",MASP-2 CCP2-SP; Table A2,3.44
same,"van der Waals contact distance, MASP-2 HIS 483 atom CD2",MASP-2 CCP2-SP; Table A2-1,3.9
same,"van der Waals contact distance, MASP-2 HIS 483 atom NE2",MASP-2 CCP2-SP; Table A2-1,3.88
same,"van der Waals contact distance, MASP-2 GLY 528 atom CA",MASP-2 CCP2-SP; Table A2-2,3.89
same,"van der Waals contact distance, SER 654 C to compound atom",MASP-2 CCP2-SP; Table A2-11,3.81
same,van der Waals contact distance GLY 656 atom CA,"MASP-2 CCP2-SP; Table A2-13, MASP-2 GLY 656 CA",3.75
same,van der Waals contact distance TRP 655 atom N,"MASP-2 CCP2-SP; Table A2-13, MASP-2 TRP 655 N",3.66
